Laboratory results from EP2125859B1, “ESTRATRIENE DERIVATIVES AND THEIR USES AS 17BETA-HYDROXYSTEROID DEHYDROGENASE INHIBITORS” (Abbott Products GmbH, priority 2006, dated 2008).

Key:
[1] = target: T1, 17β-HSD3 (Homo sapiens, UniProt P37058); test: Inhibition of 17β-HSD3 in MCF-7 cell lines stably expressing the enzyme (HPLC, tritium labeled androstenedione); assay type: cell-based; settings: MCF7, MCF-7 cells expressing 17β-HSD3, androstenedione 2 nM
T1 construct: expressed in transfected cells; host or cells: MCF-7 cells stably expressing 17β-HSD3
T1 sequence (P37058 1-310): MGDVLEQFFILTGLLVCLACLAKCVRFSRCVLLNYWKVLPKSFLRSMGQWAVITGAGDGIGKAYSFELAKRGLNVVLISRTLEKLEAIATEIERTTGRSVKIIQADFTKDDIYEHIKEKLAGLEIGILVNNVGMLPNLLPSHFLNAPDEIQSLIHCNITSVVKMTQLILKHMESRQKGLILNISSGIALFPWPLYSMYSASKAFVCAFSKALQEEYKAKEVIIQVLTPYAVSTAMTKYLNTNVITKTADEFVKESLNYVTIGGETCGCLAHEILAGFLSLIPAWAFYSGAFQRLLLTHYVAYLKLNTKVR
Description: The compounds were screened in respect of 17β-HSD3 enzyme activity in vitro on established MCF-7 cell lines, each stably expressing the 17β-HSD3 enzyme. The interconversion of substrate by 17β-HSD3 and the 17β-HSD3 inhibiting activity of chemical compounds in these cell lines were detected by HPLC system.
Varying amounts of the test compounds were incubated in the growth medium of the 17β-HSD3 expressing cells together tritium labeled androstenedione (2 nM). The medium samples were removed after exact incubation time and the reaction is stopped by trichloroacetic acid (TCA). The samples were analyzed by HPLC-coupled flow scintillation analysis.
Conversion: The 17β-HSD3 inhibiting activity of an individual test compound was calculated by comparing the conversion of a control sample without any test compound (referred to as "Negative Control") to the (reduced) conversion of the test sample containing the particular compound to be tested (referred to as "Test Sample"). [formula]
Two concentrations of each compound were used. The number of the compound refers to the numbers indicated in the Experimental Section.
The values "% inhibition" were determined for exemplified compounds, and the results are summarized in table 5 (HSD 3). table 5: 17β-HSD3 inhibition values in % of selected compounds of formula I

[2] = target: T2, recombinant human 17β-HSD1 (Homo sapiens, UniProt P14061); test: Inhibition of recombinant human 17β-HSD1 (HPLC assay, conversion of 3H-estrone to estradiol); assay type: biochemical; settings: 30 nM 3H-estrone, 1 mM NADPH, 30 min at RT; for inhibition at 0.1 µM / inhibition at 1 µM: 0.5 h, read-out: inhibition of rec. 17β-HSD1
T2 construct: made in house; host or cells: Sf9 insect cells (baculovirus, Bac to Bac Expression System)
T2 sequence (P14061 1-328): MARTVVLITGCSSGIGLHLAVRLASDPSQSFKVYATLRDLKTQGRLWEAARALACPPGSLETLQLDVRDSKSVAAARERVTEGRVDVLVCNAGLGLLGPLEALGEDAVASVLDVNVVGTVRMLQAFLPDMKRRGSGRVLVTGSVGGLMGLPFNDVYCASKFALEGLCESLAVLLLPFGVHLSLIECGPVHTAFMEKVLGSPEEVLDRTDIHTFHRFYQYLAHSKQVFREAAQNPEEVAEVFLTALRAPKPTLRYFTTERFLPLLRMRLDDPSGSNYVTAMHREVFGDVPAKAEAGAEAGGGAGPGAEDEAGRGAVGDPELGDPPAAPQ
Description: Inhibition of the 17β-hydroxysteroid dehydrogenase type 1 enzyme 17β-HSD1 purification: Recombinant baculovirus was generated by the "Bac to Bac Expression System" (Invitrogen). Recombinant bacmid was transfected to Sf9 insect cells using "Cellfectin Reagent" (Invitrogen). 60h later cells were harvested; the microsomal fraction was isolated as described by Puranen et al. (1994). Aliquots were stored frozen until determination of enzymatic activity.
Assay - Inhibition of recombinant human 17β-HSD1: Recombinant protein (0.1 µg/ml) was incubated in 20 mM KH2PO4 pH 7.4 with 30 nM 3H-estrone and 1 mM NADPH for 30 min at RT, in the presence of potential inhibitors at concentrations of 1 µM or 0.1 µM. Inhibitor stock solutions were prepared in DMSO. Final concentration of DMSO was adjusted to 1 % in all samples. The enzyme reaction was stopped by addition of 10 % trichloroacetic acid (final concentration). Samples were centrifuged in a microtiter plate at 4000 rpm for 10 min. Supernatants were applied to reverse phase HPLC on a Waters Symmetry C18 column, equipped with a Waters Sentry Guard column. Isocratic HPLC runs were performed at RT at a flow rate of 1 ml/min of acetonitrile:water 48:52 as running solvent. Radioactivity was monitored in the eluate by a Packard Flow Scintillation Analyzer. Total radioactivity for estrone and estradiol were determined in each sample and percent conversion of estrone to estradiol was calculated according to the following formula: [formula] [formula]
The values "% inhibition" were determined for exemplified compounds, and the results are summarized in table 4 (for 17β-HSD1). table 4: HSD 1 inhibition values in % of selected compounds of formula I

CC(C)CCc1cn(CC[C@@H]2CC(=O)[C@@]3(C)CC[C@@H]4c5ccc(O)cc5CC[C@H]4[C@H]23)nn1 [Compound 4, 3-Hydroxy-15β-{2-[4-(3-methyl-butyl)-[1,2,3]triazol-1-yl]-ethyl}-estra-1,3,5(10)-trien-17-one]
inhibition at 1 µM [1]: 5% | inhibition at 10 µM [1]: 40% | inhibition at 0.1 µM ([2]; 100 nM inhibitor): 92% | inhibition at 1 µM ([2]; 1 µM inhibitor): 96%

C[C@]12CC[C@@H]3c4ccc(O)cc4CC[C@H]3[C@@H]1[C@H](CCn1cc(CC3CCCCC3)nn1)CC2=O [Compound 6, 3-Hydroxy-15β-[2-(4-cyclohexylmethyl-[1,2,3]triazol-1-yl)-ethyl]-estra-1,3,5(10)-trien-17-one]
inhibition at 1 µM [1]: 16% | inhibition at 10 µM [1]: 50% | inhibition at 0.1 µM ([2]; 100 nM inhibitor): 92% | inhibition at 1 µM ([2]; 1 µM inhibitor): 94%

C[C@]12CC[C@@H]3c4ccc(O)cc4CC[C@H]3[C@@H]1[C@H](CCn1cc(-c3ccccc3F)nn1)CC2=O [Compound 7, 3-Hydroxy-15β-{2-[4-(2-fluoro-phenyl)-[1,2,3]triazol-1-yl]-ethyl}-estra-1,3,5(10)-trien-17-one]
inhibition at 1 µM [1]: 12% | inhibition at 10 µM [1]: 36% | inhibition at 0.1 µM ([2]; 100 nM inhibitor): 81% | inhibition at 1 µM ([2]; 1 µM inhibitor): 94%

C[C@]12CC[C@@H]3c4ccc(O)cc4CC[C@H]3[C@@H]1[C@H](CCCn1cc(CCc3ccccc3)nn1)CC2=O [Compound 8, 3-Hydroxy-15β-[3-(4-phenethyl-[1,2,3]triazol-1-yl)-propyl]-estra-1,3,5(10)-trien-17-one]
inhibition at 1 µM [1]: 6% | inhibition at 10 µM [1]: 61% | inhibition at 0.1 µM ([2]; 100 nM inhibitor): 81% | inhibition at 1 µM ([2]; 1 µM inhibitor): 93%

CC(C)Cc1cn(CC[C@@H]2CC(=O)[C@@]3(C)CC[C@@H]4c5ccc(O)cc5CC[C@H]4[C@H]23)nn1 [Compound 12, 3-Hydroxy-15β-[2-(4-iso-butyl-[1,2,3]triazol-1-yl)-ethyl]-estra-1,3,5(10)-trien-17-one]
inhibition at 10 µM [1]: 37% | inhibition at 0.1 µM ([2]; 100 nM inhibitor): 86% | inhibition at 1 µM ([2]; 1 µM inhibitor): 92%

CC(C)CCc1cn(CCC[C@@H]2CC(=O)[C@@]3(C)CC[C@@H]4c5ccc(O)cc5CC[C@H]4[C@H]23)nn1 [Compound 17, 3-Hydroxy-15β-{3-[4-(3-methyl-butyl)-[1,2,3]triazol-1-yl]-propyl}-estra-1,3,5(10)-trien-17-one]
inhibition at 1 µM [1]: 3% | inhibition at 10 µM [1]: 50% | inhibition at 0.1 µM ([2]; 100 nM inhibitor): 61% | inhibition at 1 µM ([2]; 1 µM inhibitor): 88%

C[C@]12CC[C@@H]3c4ccc(O)cc4CC[C@H]3[C@@H]1[C@H](CCn1cc(-c3ccccc3C(F)(F)F)nn1)CC2=O [Compound 19, 3-Hydroxy-15β-{2-[4-(2-trifluoromethyl-phenyl)-[1,2,3]triazol-1-yl]-ethyl}-estra-1,3,5(10)-trien-17-one]
inhibition at 1 µM [1]: 11% | inhibition at 10 µM [1]: 52% | inhibition at 0.1 µM ([2]; 100 nM inhibitor): 71% | inhibition at 1 µM ([2]; 1 µM inhibitor): 87%

C[C@]12CC[C@@H]3c4ccc(O)cc4CC[C@H]3[C@@H]1[C@@H](CCCn1cc(-c3cccc(O)c3)nn1)CC2=O [Compound 22, 3-Hydroxy-15-[3-(4-m-hydroxyphenyl-[1,2,3]triazol-1-yl)-propyl]-13-methyl-6,7,8,9,11,12,13,14,15,16-decahydro-cyclopenta[a]phenanthren-17-one]
inhibition at 1 µM [1]: 82% | inhibition at 0.1 µM ([2]; 100 nM inhibitor): 48% | inhibition at 1 µM ([2]; 1 µM inhibitor): 86%

CC(C)Cc1cn(CCC[C@@H]2CC(=O)[C@@]3(C)CC[C@@H]4c5ccc(O)cc5CC[C@H]4[C@H]23)nn1 [Compound 24, 3-Hydroxy-15β-[3-(4-iso-butyl-[1,2,3]triazol-1-yl)-propyl]-estra-1,3,5(10)-trien-17-one]
inhibition at 1 µM [1]: 24% | inhibition at 10 µM [1]: 64% | inhibition at 0.1 µM ([2]; 100 nM inhibitor): 52% | inhibition at 1 µM ([2]; 1 µM inhibitor): 85%

CC(C)Cc1cn(CCC[C@H]2CC(=O)[C@@]3(C)CC[C@@H]4c5ccc(O)cc5CC[C@H]4[C@H]23)nn1 [Compound 31, 3-Hydroxy-15-[3-(4-isobutyl-[1,2,3]triazol-1-yl)-propyl]-13-methyl-6,7,8,9,11,12,13,14,15,16-decahydro-cyclopenta[a]phenanthren-17-one]
inhibition at 0.1 µM ([2]; 100 nM inhibitor): 32% | inhibition at 1 µM ([2]; 1 µM inhibitor): 82%

C[C@]12CC[C@@H]3c4ccc(O)cc4CC[C@H]3[C@@H]1[C@H](CCCn1cc(-c3ccc(OC(F)(F)F)cc3)nn1)CC2=O [Compound 32, 3-Hydroxy-15β-{3-[4-(4-trifluoromethoxy-phenyl)-[1,2,3]triazol-1-yl]-propyl}-estra-1,3,5(10)-trien-17-one]
inhibition at 0.1 µM ([2]; 100 nM inhibitor): 67% | inhibition at 1 µM ([2]; 1 µM inhibitor): 81%

COC(=O)c1ccc(-c2cn(CCC[C@@H]3CC(=O)[C@@]4(C)CC[C@@H]5c6ccc(OC)cc6CC[C@H]5[C@H]34)nn2)cc1 [Compound 89, 4-{1-[3-(3-Methoxy-15β-17-oxo-estra-1,3,5(10)-trien-15-yl)-propyl]-1H-[1,2,3]triazol-4-yl}-benzoic acid methyl ester]
inhibition of rec. 17β-HSD1 ([2]; 100 nM inhibitor): 11% | inhibition of rec. 17β-HSD1 ([2]; 1 µM inhibitor): 52%

CCCCn1cc(CCCC2CC(=O)[C@@]3(C)CC[C@@H]4c5ccc(O)cc5CC[C@H]4[C@H]23)nn1 (stereo partly shown) [Compound 300, 15-[3-(1-butyl-1H-1,2,3-triazol-4-yl)propyl]-3-hydroxyestra-1(10),2,4-trien-17-one]
inhibition at 1 µM [1]: 29% | inhibition at 10 µM [1]: 61% | inhibition at 0.1 µM ([2]; 100 nM inhibitor): 85% | inhibition at 1 µM ([2]; 1 µM inhibitor): 88%

C[C@]12CC[C@@H]3c4ccc(O)cc4CC[C@H]3[C@@H]1[C@H](CCCc1cn(-c3ccc(F)cc3F)nn1)CC2=O [Compound 301, 15β-{3-[1-(2,4-difluorophenyl)-1H-1,2,3-triazol-4-yl]propyl}-3-hydroxyestra-1(10),2,4-trien-17-one]
inhibition at 1 µM [1]: 24% | inhibition at 10 µM [1]: 57% | inhibition at 0.1 µM ([2]; 100 nM inhibitor): 82% | inhibition at 1 µM ([2]; 1 µM inhibitor): 88%

C[C@]12CC[C@@H]3c4ccc(O)cc4CC[C@H]3[C@@H]1[C@H](CCCc1cn(-c3ccc(F)cc3F)nn1)CC2(F)F [Compound 302, 15-{3-[1-(2,4-difluorophenyl)-1H-1,2,3-triazol-4-yl]propyl}-17,17-difluoroestra-1(10),2,4-trien-3-ol]
inhibition at 1 µM [1]: 13% | inhibition at 10 µM [1]: 70% | inhibition at 0.1 µM ([2]; 100 nM inhibitor): 88% | inhibition at 1 µM ([2]; 1 µM inhibitor): 96%
